# Test results: ChEMBL document CHEMBL1130567, “A simplified template approach towards the synthesis of a potent beta-3 adrenoceptor agonist at the human receptor” (Bioorg Med Chem Lett, 1997); call rule not given here
# Molecular target: T1, Beta-3 adrenergic receptor (Homo sapiens, UniProt P13945)
# Assay: Beta-3 agonist efficacy in an adenylate cyclase assay performed on chinese hamster ovary cells transfected with human Beta-3 adrenergic receptor; inactive
# Format: functional, cell-based
# T1 sequence (P13945 whole entry): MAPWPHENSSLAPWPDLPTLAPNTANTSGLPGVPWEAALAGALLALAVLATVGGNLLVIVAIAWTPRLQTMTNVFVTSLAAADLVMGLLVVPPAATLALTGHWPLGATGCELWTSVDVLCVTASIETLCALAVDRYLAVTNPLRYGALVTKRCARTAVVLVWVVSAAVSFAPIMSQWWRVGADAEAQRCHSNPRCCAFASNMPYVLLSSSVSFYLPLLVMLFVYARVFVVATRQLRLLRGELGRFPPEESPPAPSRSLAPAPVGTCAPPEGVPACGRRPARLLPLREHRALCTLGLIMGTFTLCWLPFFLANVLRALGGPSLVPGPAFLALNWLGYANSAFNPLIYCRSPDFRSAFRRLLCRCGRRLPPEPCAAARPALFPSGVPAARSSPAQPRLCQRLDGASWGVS
row,SMILES,EC50
1,COc1ccc(CCNC[C@@H](O)COc2ccccc2O)cc1,Not Active
2,COc1ccc(CCNC[C@@H](O)COc2cccc3c2CCC(=O)N3)cc1,Not Active
3,COc1ccc(CCNC[C@@H](O)COc2cccc3[nH]c(C(F)(F)F)nc23)cc1,Not Active
4,COc1ccc(CCNC[C@@H](O)COc2cc(O)cc(CO)c2)cc1,Not Active
5,COc1ccc(CCNC[C@@H](O)COc2cccc3nc(O)ccc23)cc1,Not Active
6,COc1ccc(CCNC[C@@H](O)COc2ccc3c(c2)NC(=O)CO3)cc1,Not Active
7,COc1ccc(CCNC[C@@H](O)COc2ccc(O)cc2CO)cc1,Not Active
8,COc1ccc(CCNC[C@@H](O)COc2ccc(F)c(CO)c2)cc1,Not Active

# Molecular target: T1, Beta-3 adrenergic receptor
# Assay: Agonist efficacy for human Beta-3 adrenergic receptor expressed in chinese hamster ovary cells
# Format: functional, cell-based
row,SMILES,EC50
1,COc1ccc(CCNC[C@@H](O)COc2ccc(F)c(O)c2)cc1,1.1 µM
2,COc1ccc(CCNC[C@@H](O)COc2ccc(O)c(CO)c2)cc1,4.7 µM
3,COc1ccc(CCNC[C@@H](O)COc2ccc(O)cc2)cc1,1 µM
4,COc1ccc(CCNC[C@@H](O)COc2cccc(O)c2)cc1,2 µM
5,COc1ccc(CCNC[C@@H](O)COc2ccc(O)c(NS(C)(=O)=O)c2)cc1,0.4 µM
6,COc1ccc(CCNC[C@@H](O)COc2ccc(O)c(F)c2)cc1,7.9 µM
7,COc1ccc(CCNC[C@@H](O)COc2ccc(O)c3c2CCC(=O)N3)cc1,0.56 µM
8,COc1ccc(CCNC[C@@H](O)COc2ccc(O)c(O)c2)cc1,0.82 µM
9,C[C@H](Cc1ccc(OCP(=O)(O)c2ccccc2)cc1)NC[C@H](O)COc1ccc(O)c(NS(C)(=O)=O)c1,0.12 µM
10,CC(C)(C)NCC(O)COc1cccc2[nH]c(=O)[nH]c12 (stereo unspecified) [CGP-12177],2 µM
11,CCCCCCP(=O)(O)COc1ccc(CCNC[C@H](O)COc2ccc(O)c3c2CCC(=O)N3)cc1,0.29 µM
12,COc1ccc(CCNC[C@@H](O)COc2cccc3[nH]c(=O)[nH]c23)cc1,2.2 µM

# Molecular target: T1, Beta-3 adrenergic receptor
# Assay: Beta-3 agonist efficacy in an adenylate cyclase assay performed on chinese hamster ovary cells transfected with human Beta-3 adrenergic receptor; Inactive
# Format: functional, cell-based
row,SMILES,EC50
1,COc1ccc(CCNC[C@H](O)COc2cccc(O)c2O)cc1,Not Active
